In article PMC8850660, “The P300 acetyltransferase inhibitor C646 promotes membrane translocation of insulin receptor protein substrate and interaction with the insulin receptor” (The Journal of Biological Chemistry, 2022):

Columns and labels:
[1] = target: T1, insulin receptor (InsR Kinase Assay) (Homo sapiens, UniProt P06213); assay: InsR kinase assay, ADP-Glo (ADP production); type: biochemical; settings: 50 μM ATP, substrate peptide, room temperature; turnover to ADP only
T1 construct: commercial kinase from InsR Kinase Assay (Promega)
T1 sequence (P06213 1011-1382 limits assumed): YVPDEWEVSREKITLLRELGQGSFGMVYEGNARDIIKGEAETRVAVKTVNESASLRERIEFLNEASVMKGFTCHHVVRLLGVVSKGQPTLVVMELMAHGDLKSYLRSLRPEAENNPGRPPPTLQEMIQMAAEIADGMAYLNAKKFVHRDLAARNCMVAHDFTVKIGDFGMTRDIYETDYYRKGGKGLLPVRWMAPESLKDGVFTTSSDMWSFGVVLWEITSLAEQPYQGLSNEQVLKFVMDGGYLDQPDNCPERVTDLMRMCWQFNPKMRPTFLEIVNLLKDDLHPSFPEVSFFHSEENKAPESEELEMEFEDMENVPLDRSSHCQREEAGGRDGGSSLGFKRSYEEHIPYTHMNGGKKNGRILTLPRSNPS

[2] = target: T1, insulin receptor (InsR Kinase Assay); assay: InsR kinase assay, ADP-Glo (ADP production); type: biochemical; settings: activator; 50 μM ATP, substrate peptide, room temperature, 60 min
[3] = target: T2, IRβ (unphosphorylated beta subunit of insulin receptor) (Homo sapiens, UniProt P06213); assay: surface plasmon resonance (Biacore T200), IRβ immobilised on CM5; type: binding
T2 construct: gene INSR; beta subunit, commercial recombinant protein; unphosphorylated; immobilised on CM5 chip
T2 sequence (P06213 763-1382 limits assumed): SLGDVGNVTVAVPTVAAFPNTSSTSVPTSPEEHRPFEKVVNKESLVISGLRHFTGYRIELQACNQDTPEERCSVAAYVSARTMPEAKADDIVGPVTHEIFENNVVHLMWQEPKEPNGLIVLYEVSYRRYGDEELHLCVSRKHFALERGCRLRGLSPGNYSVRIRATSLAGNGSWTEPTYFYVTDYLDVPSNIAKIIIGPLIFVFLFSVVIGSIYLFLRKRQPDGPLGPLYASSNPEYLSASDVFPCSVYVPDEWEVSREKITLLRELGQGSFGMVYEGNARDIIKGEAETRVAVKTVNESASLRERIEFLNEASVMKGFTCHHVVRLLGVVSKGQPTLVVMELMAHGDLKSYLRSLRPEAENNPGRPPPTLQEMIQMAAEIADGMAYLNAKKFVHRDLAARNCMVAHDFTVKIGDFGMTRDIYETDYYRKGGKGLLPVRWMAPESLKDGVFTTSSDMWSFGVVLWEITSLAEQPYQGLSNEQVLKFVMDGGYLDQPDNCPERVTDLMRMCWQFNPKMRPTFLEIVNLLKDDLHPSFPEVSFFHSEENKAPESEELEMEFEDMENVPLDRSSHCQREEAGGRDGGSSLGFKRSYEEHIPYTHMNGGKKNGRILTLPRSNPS

Row | Compound | InsR kinase assay, ADP-Glo (ADP production) [1] | % increase of kinase activity at 100 nM [2] | Kd [3]
1 | Nc1ncnc2c1ncn2[C@@H]1O[C@H](COP(=O)(O)OP(=O)(O)OP(=O)(O)O)[C@@H](O)[C@H]1O [ATP] | found a linear curve of ADP production (consumption of ATP by insulin receptor) | – | –
2 | CC1=NN(c2ccc(C(=O)O)cc2)C(=O)C1=Cc1ccc(-c2cc(C)c(C)cc2[N+](=O)[O-])o1 [C646] | – | 50% | 4.34 µM
